From the supplement of paper PMC10307832

Columns and labels:
Experiment in all cases: relative viability (nuclei count vs DMSO), 5 days (fraction); higher = more cells survive
[1] = compound: O=C(NCCCNc1nc(Nc2cccc(NC(=O)N3CCCC3)c2)ncc1I)c1cccs1 [BX 795] + CC(=O)Nc1cccc(-n2c(=O)n(C3CC3)c(=O)c3c(Nc4ccc(I)cc4F)n(C)c(=O)c(C)c32)c1 [Trametinib] (partner 0.02 µM)
Outline: (§1)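 Lung cancer cell lines, seeded in 1536-well plates, were treated the following day by pin tool with a single drug or with five library-drug doses (not always all listed) in √10 steps on top of a fixed anchor-drug dose. Cells were fixed and nuclei stained in one step after 5 days, and nuclei were counted. Relative viability is the nuclei count for treated wells divided by that for vehicle wells, reported as medians of duplicate plates.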

[2] = compound: O=C(NCCCNc1nc(Nc2cccc(NC(=O)N3CCCC3)c2)ncc1I)c1cccs1 [BX 795] + COc1cc2c(Oc3ccc(NC(=O)C4(C(=O)Nc5ccc(F)cc5)CC4)cc3F)ccnc2cc1OCCCN1CCOCC1 [Foretinib] (partner 0.25 µM)
Outline: as §1

[3] = compound: O=C(NCCCNc1nc(Nc2cccc(NC(=O)N3CCCC3)c2)ncc1I)c1cccs1 [BX 795] + CS(=O)(=O)CCNCc1ccc(-c2ccc3ncnc(Nc4ccc(OCc5cccc(F)c5)c(Cl)c4)c3c2)o1 [Lapatinib] (partner 2 µM)
Outline: as §1

[4] = compound: O=C(NCCCNc1nc(Nc2cccc(NC(=O)N3CCCC3)c2)ncc1I)c1cccs1 [BX 795] + Cc1nc(Nc2ncc(C(=O)Nc3c(C)cccc3Cl)s2)cc(N2CCN(CCO)CC2)n1 [Dasatinib] (partner 0.075 µM)
Outline: as §1

[5] = compound: O=C(NCCCNc1nc(Nc2cccc(NC(=O)N3CCCC3)c2)ncc1I)c1cccs1 [BX 795] + O=C(CCCCCCC(=O)Nc1ccccc1)NO [Vorinostat] (partner 1 µM)
Outline: as §1

Row | Cell Line | relative viability ([1]; first compound 0.04 µM) | relative viability ([1]; first compound 0.1265 µM) | relative viability ([1]; first compound 0.4 µM) | relative viability ([1]; first compound 1.265 µM) | relative viability ([2]; first compound 0.04 µM) | relative viability ([2]; first compound 0.1265 µM) | relative viability ([2]; first compound 0.4 µM) | relative viability ([2]; first compound 1.265 µM) | relative viability ([3]; first compound 0.04 µM) | relative viability ([3]; first compound 0.1265 µM) | relative viability ([3]; first compound 0.4 µM) | relative viability ([3]; first compound 1.265 µM) | relative viability ([4]; first compound 0.04 µM) | relative viability ([4]; first compound 0.1265 µM) | relative viability ([4]; first compound 0.4 µM) | relative viability ([4]; first compound 1.265 µM) | relative viability ([5]; first compound 0.04 µM) | relative viability ([5]; first compound 0.1265 µM) | relative viability ([5]; first compound 0.4 µM) | relative viability ([5]; first compound 1.265 µM)
1 | NCI-H322M | 0.5 | 0.487 | 0.6 | 0.562 | 0.949 | 1.17 | 0.967 | 1.33 | 0.675 | 0.616 | 0.628 | 0.684 | 0.256 | 0.254 | 0.295 | 0.28 | 0.981 | 0.884 | 1.36 | 1.18
2 | NCI-H358 | 0.158 | 0.124 | 0.111 | 0.114 | 0.656 | 0.837 | 0.532 | 0.393 | 0.455 | 0.376 | 0.429 | 0.296 | 0.155 | 0.165 | 0.154 | 0.154 | 0.716 | 0.661 | 0.434 | 0.138
3 | NCI-H460 | 0.265 | 0.138 | 0.13 | 0.12 | 1.03 | 1.16 | 1.01 | 0.922 | 0.952 | 1.62 | 0.892 | 0.729 | 0.491 | 0.474 | 0.385 | 0.385 | 0.822 | 0.967 | 0.48 | 0.285
4 | NCI-H520 | 0.568 | 0.723 | 0.593 | 0.362 | 0.555 | 0.772 | 0.832 | 0.365 | 0.38 | 0.778 | 0.672 | 0.301 | 0.199 | 0.194 | 0.376 | 0.162 | 0.69 | 0.721 | 0.768 | 0.381
5 | NCI-H596 | 0.807 | 0.757 | 0.932 | 0.776 | 0.873 | 0.745 | 1.07 | 0.787 | 1.01 | 1.11 | 1.11 | 1.15 | 0.626 | 0.587 | 0.561 | 0.591 | 0.669 | 0.585 | 0.623 | 0.594
6 | NCI-H647 | 0.447 | 0.504 | 0.448 | 0.344 | 1.19 | 1.24 | 1.26 | 0.916 | 1.08 | 1.21 | 0.941 | 0.362 | 0.19 | 0.196 | 0.151 | 0.0897 | 0.553 | 0.658 | 0.571 | 0.189
7 | NCI-H650 | 1.05 | 0.999 | 0.986 | 0.928 | 1.06 | 0.935 | 0.927 | 0.911 | 0.86 | 0.873 | 0.952 | 0.689 | 0.463 | 0.41 | 0.42 | 0.337 | 0.391 | 0.429 | 0.339 | 0.34
8 | NCI-H661 | 0.62 | 0.583 | 0.55 | 0.564 | 1.09 | 1.04 | 1.03 | 0.908 | 0.564 | 0.576 | 0.359 | 0.402 | 0.9 | 0.938 | 0.501 | 0.515 | 0.824 | 0.862 | 0.832 | 0.449
9 | NCI-H727 | 0.377 | 0.38 | 0.36 | 0.4 | 0.957 | 0.846 | 0.916 | 1.09 | 0.737 | 1.01 | 0.735 | 0.637 | 0.376 | 0.318 | 0.386 | 0.58 | 1.29 | 1.25 | 1.14 | 1.21
10 | NCI-H838 | 0.5 | 0.473 | 0.397 | 0.302 | 0.952 | 0.924 | 0.917 | 0.413 | 0.87 | 0.943 | 0.736 | 0.424 | 0.29 | 0.367 | 0.261 | 0.231 | 0.737 | 0.69 | 0.642 | 0.201
11 | NCI-H1355 | 0.427 | 0.344 | 0.44 | 0.362 | 1.03 | 1.07 | 1.09 | 0.773 | 1.05 | 0.976 | 1.11 | 0.946 | 0.763 | 0.659 | 0.684 | 0.664 | 0.649 | 0.63 | 0.696 | 0.487
12 | NCI-H1395 | 1.05 | 1.06 | 0.52 | 0.925 | 0.979 | 1.02 | 0.943 | 0.899 | 0.815 | 0.819 | 0.595 | 0.948 | 0.368 | 0.435 | 0.397 | 0.32 | 0.574 | 0.624 | 0.404 | 0.516
13 | NCI-H1437 | 0.496 | 0.605 | 0.516 | 0.538 | 1.08 | 1.25 | 1.39 | 0.99 | 0.833 | 0.858 | 0.782 | 0.547 | 0.308 | 0.467 | 0.396 | 0.379 | 0.765 | 0.945 | 1.02 | 0.621
14 | NCI-H1650 | 0.6 | 0.493 | 0.551 | 0.504 | 1.24 | 1.06 | 0.668 | 0.792 | 0.938 | 0.737 | 0.671 | 0.521 | 0.317 | 0.276 | 0.291 | 0.258 | 0.593 | 0.486 | 0.528 | 0.369
15 | NCI-H1651 | 0.847 | 0.87 | 0.879 | 0.824 | 0.786 | 0.748 | 0.76 | 0.674 | 0.756 | 0.801 | 0.764 | 0.64 | 0.38 | 0.426 | 0.43 | 0.347 | 0.553 | 0.478 | 0.548 | 0.541
